Experimental findings from patent US10934297B2, “5-heteroaryl substituted indazole-3-carboxamides and preparation and use thereof” (Samumed, LLC, priority 2018, dated 2021) are described below.

SMILES strings stand for the structures.

Assay [1] concerns the target GSK3β kinase (Homo sapiens (Human), UniProt P49841). Kind of assay: GSK3β kinase assay (Ser/Thr 09 peptide Z-lyte FRET). Format: biochemical. To be noted: read-out: EC50 (method: IC50). The essentials:
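Non-radioactive Z-lyte FRET read-out, kinase activity expressed as coumarin/fluorescein emission ratio. Compounds incubated with the reaction mixture one hour at room temperature in duplicate, then development buffer added for another hour. IC50 from non-linear regression of dose-response curves.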

The subject of assay [2] is primary human fibroblasts derived from IPF patients (LL29 cells). Kind of assay: Inhibition of the fibrotic process: αSMA staining in TGF-β1 treated LL29 fibroblasts. It counts as cell-based. To be noted: Homo sapiens, Fibroblast, 96 h; LL29 cells, TGF-β1 20 ng/mL, 4 days, % αSMA positive cells. In a few lines: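 LL29 fibroblasts from IPF patients, in F12 medium with 1% FBS, treated with TGF-β1 plus compound; TGF-β1 with DMSO as positive control, DMSO alone as negative control. After 4 days' incubation, SYTOX green nucleic acid stain added at 1 μM final, 30 min at room temperature.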

For assay [3], the system named is IL-6. Description: IL-6 inhibition in LPS-stimulated human peripheral blood mononuclear cells (HTRF). Format: cell-based. To be noted: Homo sapiens, PBMC; for EC50: huPBMCs, LPS 50 ng/mL, 22 hours, IL-6 HTRF; for inhibition at 10 µM: read-out: percent inhibition at 10 μM. The essentials: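 Fresh human PBMCs at 1×10e6 cells/mL in RPMI/1% FBS were stimulated with 50 ng/mL E. coli 0111:B4 LPS added 2 h after compound, then incubated 22 h at 37° C. Secreted IL-6 was measured by HTRF (665/620 nm ratio) after 3 h at room temperature. EC50 was taken from activity normalized to DMSO-treated cells.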

Assay [4] has as its target DYRK1A kinase (Homo sapiens (Human), UniProt Q13627). Kind of assay: DYRK1A kinase assay (Ser/Thr 18 peptide Z-lyte FRET). To be noted: read-out: EC50 (method: IC50). It counts as biochemical. The essentials: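 This Z-lyte FRET assay reads the coumarin/fluorescein emission ratio. Compounds were incubated with the reaction mixture for 1 h at room temperature, followed by development reagent for a further 1 h at room temperature, in duplicate.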

The test system of assay [5] is SW480 colon carcinoma cells. Kind of assay: Cell viability assay (CellTiter-Glo) in SW480 colon carcinoma cells. Particulars: Homo sapiens, 96 h, four days. Format: cell-based, human. In a few lines:
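SW480 cells stably carrying an Sp5-promoter luciferase reporter were plated at 2,000 cells/well in DMEM with 1% FBS and treated with compound for four days at 37 °C. Viability was read as ATP luminescence with CellTiter-Glo after about 12 min; DMSO-treated wells served as controls.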

Assay [6] deals with Wnt activity (Sp5-Luc reporter in SW480 cells). Kind of assay: Screening assay for Wnt activity: Sp5-Luc reporter gene assay in SW480 colon carcinoma cells. It counts as cell-based, human. To be noted: Homo sapiens, 36 to 48 hours. In a few lines: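 SW480 colon carcinoma cells stably carrying a lentiviral luciferase reporter driven by an Sp5 promoter with eight TCF/LEF sites, plated at 4,000 cells/well in DMEM with 1% FBS. Compound exposure for 36–48 h at 37 °C, then luminescence read. Signals normalized to DMSO; EC50 from four-parameter nonlinear fit.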

GSK3β kinase, sequence (P49841 whole entry): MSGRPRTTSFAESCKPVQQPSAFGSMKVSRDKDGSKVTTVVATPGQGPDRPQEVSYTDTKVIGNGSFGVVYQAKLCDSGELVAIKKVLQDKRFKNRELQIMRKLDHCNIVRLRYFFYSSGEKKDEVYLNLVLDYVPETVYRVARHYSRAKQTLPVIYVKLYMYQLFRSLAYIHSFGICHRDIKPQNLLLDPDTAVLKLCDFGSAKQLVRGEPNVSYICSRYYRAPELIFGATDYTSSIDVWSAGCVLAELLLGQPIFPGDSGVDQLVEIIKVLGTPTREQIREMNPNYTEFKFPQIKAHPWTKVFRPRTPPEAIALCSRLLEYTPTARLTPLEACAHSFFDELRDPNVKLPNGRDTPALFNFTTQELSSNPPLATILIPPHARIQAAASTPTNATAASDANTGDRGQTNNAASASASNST

`Cn1cc(-c2ccc3[nH]nc(C(=O)Nc4ccc(CN5CCCC5)cc4F)c3c2)cn1` [Compound 73, N-(2-Fluoro-4-(pyrrolidin-1-ylmethyl)phenyl)-5-(1-methyl-1H-pyrazol-4-yl)-1H-indazole-3-carboxamide]: the results for the IC50 in assay [1] and in assay [4] were 68 nM and 3 nM, respectively. Also, the 50% effective concentration (EC50) in assay [2] came to 799 nM; in assay [3] it was 1160 nM; in assay [5] it was 6970 nM; in assay [6], 1550 nM.

Turning to `Cn1cc(-c2ccc3[nH]nc(C(=O)Nc4ccc(CN5CCCC5)cc4O)c3c2)cn1` [Compound 74, N-(2-Hydroxy-4-(pyrrolidin-1-ylmethyl)phenyl)-5-(1-methyl-1H-pyrazol-4-yl)-1H-indazole-3-carboxamide], the figures for the IC50 in assay [1] and in assay [4] were 878 nM and 305 nM, respectively. The EC50 in assay [2] is 35 nM; in assay [3], over 10000 nM; in assay [5], over 10000 nM; in assay [6] it was 2170 nM. Moreover, the inhibition at 10 µM in assay [3] is 22.1%.

On to `Cn1cc(-c2cc3c(C(=O)Nc4ccc(CN5CCC(F)CC5)cc4)n[nH]c3cc2F)cn1` [Compound 75, 6-Fluoro-N-(4-((4-fluoropiperidin-1-yl)methyl)phenyl)-5-(1-methyl-1H-pyrazol-4-yl)-1H-indazole-3-carboxamide], for which the results for the IC50 in assay [1] and in assay [4] were 39 nM and 3 nM, respectively. For the same compound, the EC50 in assay [2] worked out at 159 nM; in assay [3], 1160 nM; in assay [5], 1100 nM; in assay [6] it was 542 nM.

On to `CN1CCN(Cc2ccc(NC(=O)c3n[nH]c4cc(F)c(-c5cnn(C)c5)cc34)cc2)CC1` [Compound 78, 6-Fluoro-5-(1-methyl-1H-pyrazol-4-yl)-N-(4-((4-methylpiperazin-1-yl)methyl)phenyl)-1H-indazole-3-carboxamide], for which the IC50 worked out at 18 nM in assay [1] and 1 nM in assay [4]. The EC50 in assay [2] stood at 545 nM; in assay [3], 1140 nM; in assay [5] it was 454 nM; in assay [6] it was 249 nM.

Turning to `CN1CCC(Oc2ccc(NC(=O)c3n[nH]c4cc(F)c(-c5cnn(C)c5)cc34)cc2)CC1` [Compound 79, 6-Fluoro-5-(1-methyl-1H-pyrazol-4-yl)-N-(4-((1-methylpiperidin-4-yl)oxy)phenyl)-1H-indazole-3-carboxamide], the IC50 turned out to be 60 nM in assay [1] and 2 nM in assay [4]. The EC50 in assay [2] came to 61 nM; in assay [3], 1760 nM; in assay [5] it was 140 nM; in assay [6], 266 nM.

For `CN1CCC(Oc2ccc(NC(=O)c3n[nH]c4cc(F)c(-c5cnn(C(F)F)c5)cc34)cc2)CC1` [Compound 80, 5-(1-(Difluoromethyl)-1H-pyrazol-4-yl)-6-fluoro-N-(4-((1-methylpiperidin-4-yl)oxy)phenyl)-1H-indazole-3-carboxamide], the IC50 turned out to be 783 nM in assay [1] and 19 nM in assay [4]. In addition, the EC50 in assay [2] was 1300 nM; in assay [3], 3440 nM; in assay [5], 5000 nM; in assay [6], 8520 nM.

On to `Cc1c(-c2cc3c(C(=O)Nc4ccc(OC5CCN(C)CC5)cc4)n[nH]c3cc2F)cnn1C` [Compound 81, 5-(1,5-Dimethyl-1H-pyrazol-4-yl)-6-fluoro-N-(4-((1-methylpiperidin-4-yl)oxy)phenyl)-1H-indazole-3-carboxamide], for which the IC50 amounted to 35 nM in assay [1] and 1 nM in assay [4]. Further, the concentration giving a half-maximal response (EC50) in assay [2] was found to be 341 nM; in assay [3] it was 1060 nM; in assay [5] it was 139 nM; in assay [6], 115 nM.

As to `CN1CCC(Nc2ccc(NC(=O)c3n[nH]c4cc(F)c(-c5cnn(C)c5)cc34)cc2)CC1` [Compound 83, 6-Fluoro-5-(1-methyl-1H-pyrazol-4-yl)-N-(4-((1-methylpiperidin-4-yl)amino)phenyl)-1H-indazole-3-carboxamide], the IC50 in assay [1] worked out at 74 nM; in assay [4], 2 nM. The EC50 in assay [2] is 250 nM; in assay [3] it was 1240 nM; in assay [5], 220 nM; in assay [6] it was 275 nM.

In the case of `Cn1cc(-c2cc3c(C(=O)Nc4ccc5c(c4)CNC5)n[nH]c3cc2F)cn1` [Compound 84, 6-Fluoro-N-(isoindolin-5-yl)-5-(1-methyl-1H-pyrazol-4-yl)-1H-indazole-3-carboxamide], the results for the IC50 in assay [1] and in assay [4] were 21 nM and 2 nM, respectively. Besides, the EC50 in assay [2] was 1690 nM; in assay [3] it was over 10000 nM; in assay [5], 300 nM; in assay [6], 1340 nM. Further, the inhibition at 10 µM in assay [3] turned out to be 2.1%.

Take `CN1Cc2ccc(NC(=O)c3n[nH]c4cc(F)c(-c5cnn(C)c5)cc34)cc2C1` [Compound 85, 6-Fluoro-5-(1-methyl-1H-pyrazol-4-yl)-N-(2-methylisoindolin-5-yl)-1H-indazole-3-carboxamide]: the values for the IC50 in assay [1] and in assay [4] were 35 nM and 2 nM, respectively. In addition, the EC50 was determined as 904 nM in assay [2], 2990 nM in assay [3], 203 nM in assay [5] and 566 nM in assay [6].

On to `O=C(Nc1ccc(OC(F)F)nc1)c1n[nH]c2ccc(-c3cnn(C4CNC4)c3)cc12` [Compound 86, 5-(1-(Azetidin-3-yl)-1H-pyrazol-4-yl)-N-(6-(difluoromethoxy)pyridin-3-yl)-1H-indazole-3-carboxamide], for which the half-maximal inhibitory concentration (IC50) in assay [1] worked out at 354 nM; in assay [4] it was 98 nM. Moreover, the EC50 was 1190 nM in assay [2], over 10000 nM in assay [3], over 10000 nM in assay [5] and 1840 nM in assay [6]. Moreover, the inhibition at 10 µM in assay [3] amounted to 14.8%.

`O=C(Nc1ccc(OC(F)F)nc1)c1n[nH]c2ccc(-c3cnn(CCN4CCCC4)c3)cc12` [Compound 89, N-(6-(Difluoromethoxy)pyridin-3-yl)-5-(1-(2-(pyrrolidin-1-yl)ethyl)-1H-pyrazol-4-yl)-1H-indazole-3-carboxamide]: the IC50 in assay [1] amounted to 656 nM; in assay [4], 304 nM. Also, the EC50 in assay [2] was found to be 1200 nM; in assay [3], 6590 nM; in assay [5], 4600 nM; in assay [6], 4340 nM.

In the case of `O=C(Nc1ccc(OC(F)F)nc1)c1n[nH]c2ccc(-c3cnn(CCN4CCOCC4)c3)cc12` [Compound 90, N-(6-(Difluoromethoxy)pyridin-3-yl)-5-(1-(2-morpholinoethyl)-1H-pyrazol-4-yl)-1H-indazole-3-carboxamide], the 50% inhibitory concentration (IC50) in assay [1] turned out to be 403 nM; in assay [4] it was 329 nM. In addition, the EC50 is over 10000 nM in assay [2], over 10000 nM in assay [3], 7390 nM in assay [5] and 2130 nM in assay [6]. Moreover, the inhibition at 10 µM in assay [3] stood at 37%.

As to `O=C(Nc1ccc(N2CCCC2)nc1)c1n[nH]c2ccc(-c3cnn(C4CC4)c3)cc12` [Compound 91, 5-(1-Cyclopropyl-1H-pyrazol-4-yl)-N-(6-(pyrrolidin-1-yl)pyridin-3-yl)-1H-indazole-3-carboxamide], the results for the IC50 in assay [1] and in assay [4] were 332 nM and 50 nM, respectively. Further, the EC50 in assay [2] is 1490 nM; in assay [3], over 10000 nM; in assay [5], 2100 nM; in assay [6], 1130 nM. Further, in assay [3], the inhibition at 10 µM amounted to 53.6%.

As for `O=C(Nc1ccc(N2CCCC2)nc1)c1n[nH]c2cc(F)c(-c3cnn(C4CC4)c3)cc12` [Compound 92, 5-(1-Cyclopropyl-1H-pyrazol-4-yl)-6-fluoro-N-(6-(pyrrolidin-1-yl)pyridin-3-yl)-1H-indazole-3-carboxamide], the half-maximal inhibitory concentration (IC50) in assay [1] was 699 nM; in assay [4], 39 nM. The EC50 was 313 nM in assay [2], over 10000 nM in assay [3], over 10000 nM in assay [5] and 2310 nM in assay [6]. For the same compound, the inhibition at 10 µM in assay [3] was determined as 0%.

As to `O=C(Nc1ccc(N2CCCC2)nc1)c1n[nH]c2ccc(-c3cnn(C4CCNCC4)c3)cc12` [Compound 93, 5-(1-(Piperidin-4-yl)-1H-pyrazol-4-yl)-N-(6-(pyrrolidin-1-yl)pyridin-3-yl)-1H-indazole-3-carboxamide], the IC50 in assay [1] is 430 nM; in assay [4], 6 nM. Moreover, the EC50 in assay [2] was 1200 nM; in assay [3] it was over 10000 nM; in assay [5], 823 nM; in assay [6], 1590 nM. Also, the inhibition at 10 µM in assay [3] was found to be 5.5%.
